# Assay results reported in patent US20230282357A1, “ACUTE LIVER PATIENT MANAGEMENT” (MERIDIAN BIOSCIENCE ISRAEL LTD., priority 2020, published 2023).
# Where two headings read alike, the source gives them in different places.
# What was measured:
# CYP1A2 metabolism [1] = molecular target: T1, CYP1A2 metabolism (Homo sapiens, UniProt P05177); settings: in vivo
# T1 sequence (P05177 1-516): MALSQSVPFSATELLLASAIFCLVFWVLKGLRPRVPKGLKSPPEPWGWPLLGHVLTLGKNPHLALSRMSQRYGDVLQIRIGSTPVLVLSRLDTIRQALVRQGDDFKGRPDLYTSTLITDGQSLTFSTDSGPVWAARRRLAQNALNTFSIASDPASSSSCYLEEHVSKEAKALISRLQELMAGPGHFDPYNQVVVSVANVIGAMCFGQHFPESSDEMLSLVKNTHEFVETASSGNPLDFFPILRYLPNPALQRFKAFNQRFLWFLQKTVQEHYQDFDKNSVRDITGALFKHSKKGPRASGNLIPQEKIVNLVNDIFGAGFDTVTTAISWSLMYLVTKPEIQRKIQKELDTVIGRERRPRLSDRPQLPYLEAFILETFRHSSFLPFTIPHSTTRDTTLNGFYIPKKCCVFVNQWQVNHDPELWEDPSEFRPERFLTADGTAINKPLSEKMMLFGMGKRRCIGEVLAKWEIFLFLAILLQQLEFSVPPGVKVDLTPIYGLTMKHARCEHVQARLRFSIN
# Procedure: (§1) A ^13C-methacetin breath test (MBT), which assays CYP1A2 metabolism, for assessing functional liver capacity and its changes over time, was utilized to predict transplant-free survival.
# (§2) Method: Eligible patients with ALF or non-acetaminophen (APAP) ALI underwent ^13C-MBT at day 1, 2, 3, 5 and 7 after enrollment, unless discharged, transplanted or died. 75 mg of ^13C-methacetin was administered orally or via a nasogastric tube, and exhaled ^13CO2 measured for up to 60 minutes using the BreathID® (Exalenz Bioscience Ltd., Modi’in, Israel). The percent dose recovery (PDR) peak was determined on day 1 or 2 and correlated with 21-day outcome.
# [2] = human, in vivo
# CYP1A2 metabolism [3] = molecular target: T1, CYP1A2 metabolism; assay: 13C-methacetin breath test (MBT), PDR-peak in ALF/ALI patients
# Procedure: as §1, §2
smiles,measurement,setting,value
CC(=O)Nc1ccc(O[13CH3])cc1 [^13C-methacetin],"mean serial PDR-peaks, TFS vs non-TFS",CYP1A2 metabolism [1],consistently higher
same,serial PDR peak results,CYP1A2 metabolism [1],very low PDR-peak during the entire period
same,de-novo or worsening serum cysteine-APAP protein adduct levels on serial testing,[2],None of the first 20 patients
same,serious adverse events attributable to test device or substrate,[2],no serious adverse events
same,AUROC of PDR-peak as predictor of 21-day transplant free survival,"CYP1A2 metabolism [3]; 42 ALF patients, Day 1 or 2 PDR-peak values",0.82 (95% CI 0.68-0.96)
same,AUROC of PDR-peak as predictor of 21-day transplant free survival,"CYP1A2 metabolism [3]; 42 ALF patients, combined with the ALFSG prognostic index",0.93
same,AUROC of PDR-peak as predictor of 21-day transplant free survival,"CYP1A2 metabolism [3]; 42 ALF patients, with inclusion of ALF etiology",0.89 (95% CI 0.79-0.98)
same,AUROC of PDR-peak as predictor of 21-day transplant free survival,"CYP1A2 metabolism [3]; 56 ALF and ALI patients, day 1 or 2 measures",0.88 (95% CI 0.79-0.97)
same,AUROC of PDR-peak as predictor of 21-day transplant free survival,"CYP1A2 metabolism [3]; 56 ALF and ALI patients, with inclusion of the etiology of ALI/ALF",0.92 (95% CI 0.85-0.99)
same,serial PDR peak results,"CYP1A2 metabolism [3]; ALF DILI patient who survived without transplant, FIG. 6",improved from day 2 through day 7
same,day 1 or 2 mean PDR-peak,"CYP1A2 metabolism [3]; transplant-free survivors (TFS), 75 mg orally or via nasogastric tube, exhaled 13CO2 up to 60 minutes",9.2 %/h
